Experimental data from patent publication US8507539B2, “Potassium channel blockers and uses thereof” (Bionomics Limited, priority 2008, dated 2013).

target: hKv1.3 (Homo sapiens, UniProt P22001); assay: Whole-cell patch-clamp block of Kv1.3 current in CHO cells stably expressing hKv1.3; assay type: cell-based; conditions: CHO cells stably expressing hKv1.3, whole-cell patch clamp; reported as ranges; read-out: IC50 (Kv1.3)
Method: The effectiveness of the generated compounds in blocking the Kv1.3 current was assayed on CHO cells stably expressing hKv1.3. Cells were grown in F12 Kaighns' medium supplemented with 10% fetal calf serum, 2 mM L-glutamine, 1 mM Na^+ pyruvate, 100 units/ml penicillin, 100 Fg/ml streptomycin and 500 μg/ml G418 (to keep them under selection pressure). Kv1.3 currents were measured using the whole-cell configuration of the patch-clamp technique and were evoked by 500 ms depolarising voltage pulses to +40 mV from a holding potential of −80 mV at 30 sec intervals. Cells were continuously bathed in Ringers solution containing (mM): 160 NaCl, 4.5 KCl, 2.5 CaCl2, 1 MgCl2, 10 HEPES, pH 7.4, 290-310 mOsm. The internal (pipette) solution contained (mM): 134 KF, 2 MgCl2, 10 HEPES, 10 EGTA (pH 7.2, 290-310 mOsm). Series resistance compensation (60-80%) was applied when the peak current amplitude exceeded 2 nA. Compounds initially dissolved in DMSO were diluted in bath solution (final DMSO concentration 0.5%) and applied directly to the recording chamber at increasing concentrations allowing ample time for steady state block to be achieved between each concentration. Each compound was tested at 4-5 different concentrations in triplicate. IC50 values were determined by fitting the average normalised reduction of the current integral to the Hill equation.

hKv1.3, sequence (P22001 whole entry): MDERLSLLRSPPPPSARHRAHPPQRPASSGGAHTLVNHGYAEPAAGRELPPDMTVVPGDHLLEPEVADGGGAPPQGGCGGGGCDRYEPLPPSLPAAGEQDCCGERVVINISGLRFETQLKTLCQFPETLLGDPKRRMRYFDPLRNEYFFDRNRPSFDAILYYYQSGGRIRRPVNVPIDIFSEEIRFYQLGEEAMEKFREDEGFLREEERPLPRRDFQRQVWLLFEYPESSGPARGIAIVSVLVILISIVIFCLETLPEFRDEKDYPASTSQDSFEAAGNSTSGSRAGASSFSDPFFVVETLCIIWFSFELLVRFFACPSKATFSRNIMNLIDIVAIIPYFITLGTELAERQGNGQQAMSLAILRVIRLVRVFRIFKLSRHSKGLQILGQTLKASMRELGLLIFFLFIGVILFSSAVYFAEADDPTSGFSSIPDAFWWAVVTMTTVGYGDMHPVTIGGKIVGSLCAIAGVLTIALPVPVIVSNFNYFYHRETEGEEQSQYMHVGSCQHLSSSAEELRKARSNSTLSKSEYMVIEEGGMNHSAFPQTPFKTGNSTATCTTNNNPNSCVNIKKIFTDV

Row | SMILES | IC50 [nM]
1 | CC(=O)c1c(OCCN2CCOCC2)c(OCCCc2ccccc2)c2ocnc2c1C [Example 1i, 5-Acetyl-4-methyl-6-(2-morpholinoethoxy)-7-(3-phenylpropoxy)-benzo[d]oxazole] | 50 to 200
2 | CC(=O)c1c(OCCN2CCOCC2)c(OCCC(C)c2ccc(F)cc2)c2ocnc2c1C (stereo not drawn) [Example 2d, 5-Acetyl-7-[3-(4-fluorophenyl)butoxy]-4-methyl-6-(2-morpholin-4-yl-ethoxy)benzooxazole] | < 50
3 | CC(=O)c1c(OCCc2ccccn2)c(OCCC(C)c2ccc(F)cc2)c2ocnc2c1C (stereo not drawn) [Example 3, 5-Acetyl-7-[3-(4-fluorophenyl)butoxy]-4-methyl-6-(2-pyridin-2-yl-ethoxy)benzooxazole] | < 50
4 | CC(=O)c1c(OCCN(C)C)c(OCCC(C)c2ccc(F)cc2)c2ocnc2c1C (stereo not drawn) [Example 4b, 5-Acetyl-7-[3-(4-fluorophenyl)butoxy]-4-methyl-6-(2-N,N-dimethylamino-ethoxy)benzooxazole] | 200 to 1000
5 | CC(=O)c1c(OCCn2ccnc2)c(OCCC(C)c2ccc(F)cc2)c2ocnc2c1C (stereo not drawn) [Example 5, 5-Acetyl-7-[3-(4-fluorophenyl)butoxy]-4-methyl-6-(2-N-imidazolyl-ethoxy)benzooxazole] | < 50
6 | CC(=O)c1c(OCCN2CCOCC2)c(OCCC(C)c2ccc(F)cc2)c2oc(C)nc2c1C (stereo not drawn) [Example 6c, 5-Acetyl-7-[3-(4-fluorophenyl)butoxy]-2,4-dimethyl-6-(2-morpholin-4-yl-ethoxy)-benzooxazole] | < 50
7 | CC(=O)c1c(OCCN(C)C)c(OCCC(C)c2ccc(F)cc2)c2oc(C)nc2c1C (stereo not drawn) [Example 7, 5-Acetyl-6-(2-dimethylaminoethoxy)-7-[3-(4-fluorophenyl)butoxy]-2,4-dimethyl-benzooxazole] | 200 to 1000
8 | CC(=O)c1c(OCCc2ccccn2)c(OCCC(C)c2ccc(F)cc2)c2oc(C)nc2c1C (stereo not drawn) [Example 8, 5-Acetyl-7-[3-(4-fluorophenyl)butoxy]-2,4-dimethyl-6-(2-pyridin-2-yl-ethoxy)-benzooxazole] | < 50
9 | CC(=O)c1c(OCCc2cccc[n+]2[O-])c(OCCC(C)c2ccc(F)cc2)c2oc(C)nc2c1C (stereo not drawn) [Example 9, 2-(2-(5-acetyl-7-(3-(4-fluorophenyl)butoxy)-2,4-dimethylbenzo[d]oxazol-6-yloxy)ethyl)pyridine 1-oxide] | 200 to 1000
10 | CC(=O)c1c(OCCn2ccnc2)c(OCCC(C)c2ccc(F)cc2)c2oc(C)nc2c1C (stereo not drawn) [Example 10b, 5-Acetyl-7-[3-(4-fluorophenyl)butoxy]-6-(2-imidazol-1-yl-ethoxy)-2,4-dimethyl-benzooxazole] | 50 to 200
11 | CC(=O)c1c(OCCn2nnc(N)n2)c(OCCC(C)c2ccc(F)cc2)c2oc(C)nc2c1C (stereo not drawn) [Example 11a, 5-Acetyl-6-[2-(5-aminotetrazol-2-yl)-ethoxy]-7-[3-(4-fluorophenyl)butoxy]-2,4-dimethyl-benzooxazole] | < 50
12 | CC(=O)c1c(OCCn2nnnc2N)c(OCCC(C)c2ccc(F)cc2)c2oc(C)nc2c1C (stereo not drawn) [Example 11b, 5-Acetyl-6-[2-(5-amino-tetrazol-1-yl)-ethoxy]-7-[3-(4-fluorophenyl)butoxy]-2,4-dimethyl-benzooxazole] | 50 to 200
13 | CC(=O)c1c(OCCN2CCC(=O)CC2)c(OCCC(C)c2ccc(F)cc2)c2oc(C)nc2c1C (stereo not drawn) [Example 12, 1-(2-{5-Acetyl-7-[3-(4-fluorophenyl)butoxy]-2,4-dimethyl-benzooxazol-6-yloxy}-ethyl)-piperidin-4-one] | 50 to 200
14 | CC(=O)c1c(OCCN2CC[S+]([O-])CC2)c(OCCC(C)c2ccc(F)cc2)c2oc(C)nc2c1C (stereo not drawn) [Example 14, 5-Acetyl-7-[3-(4-fluorophenyl)butoxy]-2,4-dimethyl-6-[2-(1-oxo-thiomorpholin-4-yl)-ethoxy]-benzooxazole] | 50 to 200
15 | CC(=O)c1c(OCCN2CCS(=O)(=O)CC2)c(OCCC(C)c2ccc(F)cc2)c2oc(C)nc2c1C (stereo not drawn) [Example 15, 5-Acetyl-6-[2-(1,1-dioxo-thiomorpholin-4-yl)-ethoxy]-7-[3-(4-fluorophenyl)butoxy]-2,4-dimethyl-benzooxazole] | < 50
16 | CC(=O)c1c(OCCn2ccnc2C)c(OCCC(C)c2ccc(F)cc2)c2oc(C)nc2c1C (stereo not drawn) [Example 16, 5-Acetyl-7-[3-(4-fluorophenyl)butoxy]-2,4-dimethyl-6-[2-(2-methylimidazol-1-yl)-ethoxy]-benzooxazole] | 50 to 200
17 | CC(=O)c1c(OCCN2CCC(C)(O)CC2)c(OCCC(C)c2ccc(F)cc2)c2oc(C)nc2c1C (stereo not drawn) [Example 19, 5-Acetyl-7-[3-(4-fluorophenyl)butoxy]-6-[2-(4-hydroxy-4-methyl-piperidin-1-yl)-ethoxy]-2,4-dimethyl-benzooxazole] | 50 to 200

Row | SMILES | IC50 [nM]
18 | CCN(CC)CCOc1c(C(C)=O)c(C)c2nc(C)oc2c1OCCC(C)c1ccc(F)cc1 (stereo not drawn) [Example 20, 5-Acetyl-6-(2-diethylamino-ethoxy)-7-[3-(4-fluorophenyl)butoxy]-2,4-dimethyl-benzooxazole] | 200 to 1000
19 | CC(=O)c1c(OCC[n+]2ccc(N)cc2)c(OCCC(C)c2ccc(F)cc2)c2oc(C)nc2c1C (stereo not drawn) [Example 21, 5-Acetyl-6-(2-(4-aminopyridin-1-ium)ethoxy)-7-[3-(4-fluorophenyl)butoxy]-2,4-dimethyl-benzo[d]oxazole chloride] | > 1000
20 | CC(=O)c1c(OCCN)c(OCCC(C)c2ccc(F)cc2)c2oc(C)nc2c1C (stereo not drawn) [Example 22, 5-Acetyl-6-(2-aminiumethoxy)-7-[3-(4-fluorophenyl)butoxy]-2,4-dimethyl-benzo[d]oxazole chloride] | 200 to 1000
21 | CC(=O)c1c(OCCN=C(N(C)C)N(C)C)c(OCCC(C)c2ccc(F)cc2)c2oc(C)nc2c1C (stereo not drawn) [Example 23, 5-Acetyl-6-(2-(N,N,N′,N′-tetramethylguanidinium)ethoxy)-7-[3-(4-fluorophenyl)butoxy]-2,4-dimethyl-benzo[d]oxazole chloride] | 200 to 1000
22 | CC(=O)c1c(OCCN2CCN(C)CC2)c(OCCC(C)c2ccc(F)cc2)c2oc(C)nc2c1C (stereo not drawn) [Example 25] | 200 to 1000
23 | CC(=O)c1c(OCCNC(C)(C)C)c(OCCC(C)c2ccc(F)cc2)c2oc(C)nc2c1C (stereo not drawn) [Example 26, 5-Acetyl-6-(2-(N-tertbutylamino)ethoxy)-7-[3-(4-fluorophenyl)butoxy]-2,4-dimethyl-benzo[d]oxazole] | 200 to 1000
24 | Cc1nc2c(C)c(C(C)O)c(OCCN3CCSCC3)c(OCCC(C)c3ccc(F)cc3)c2o1 (stereo not drawn) [Example 27, 4-(1-Hydroxyethyl)-7-[3-(4-fluorophenyl)butoxy]-2,4-dimethyl-6-(2-thiomorpholin-4-ylethoxy)-benzo[d]oxazole] | < 50
25 | CC(=O)c1c(OCCN2CCOCC2)c(OCCC(C)c2ccc(F)cc2)c2oc(C(F)(F)F)nc2c1C (stereo not drawn) [Example 28c, 5-Acetyl-7-[3-(4-fluorophenyl)butoxy]-4-methyl-6-(2-morpholin-4-yl-ethoxy)-2-trifluoromethyl-benzooxazole] | 50 to 200
26 | CC(=O)c1c(OCCc2ccccn2)c(OCCC(C)c2ccc(F)cc2)c2oc(C(F)(F)F)nc2c1C (stereo not drawn) [Example 29, 5-Acetyl-7-[3-(4-fluorophenyl)butoxy]-4-methyl-6-(2-pyridin-2-yl-ethoxy)-2-trifluoromethyl-benzo[d]oxazole] | 50 to 200
27 | CC(=O)c1c(OCCN2CCOCC2)c(OCCC(C)c2ccc(F)cc2)c2oc(C(F)F)nc2c1C (stereo not drawn) [Example 30c, 5-Acetyl-7-[3-(4-fluorophenyl)butoxy]-6-(2-morphin-4-yl-ethoxy)-4-methyl-2-difluoromethyl-benzo[d]oxazole] | 50 to 200
28 | CC(=O)c1c(OCCN2CCOCC2)c(OCCC(C)c2ccc(F)cc2)c2oc(C(C)C)nc2c1C (stereo not drawn) [Example 32c, 5-Acetyl-7-[3-(4-fluorophenyl)butoxy]-2-isopropyl-4-methyl-6-(2-morpholin-4-O-ethoxy)-benzo[d]oxazole] | < 50
29 | CC(=O)c1c(OCCN2CCCC(F)(F)C2)c(OCCC(C)c2ccc(F)cc2)c2oc(C(C)C)nc2c1C (stereo not drawn) [Example 33b, 5-Acetyl-6-[2-(3,3-difluoropiperidin-1-yl)ethoxy]-7-[3-(4-fluorophenyl)butoxy]-2-isopropyl-4-methylbenzo[d]oxazole] | 50 to 200
30 | CC(=O)c1c(OCCn2ccnc2C)c(OCCC(C)c2ccc(F)cc2)c2oc(C(C)C)nc2c1C (stereo not drawn) [Example 34, 5-Acetyl-7-[3-(4-fluorophenyl)butoxy]-2-isopropyl-1-4-methyl-6-[2-(2-methyl-1H-imidazol-1-yl)ethoxy]-benzo[d]oxazole] | 200 to 1000
31 | CC(=O)c1c(OCCN2CCOCC2)c(OCCC(C)c2ccc(F)cc2)c2oc(C3CC3)nc2c1C (stereo not drawn) [Example 35d, 5-Acetyl-7-[3-(4-fluorophenyl)butoxy]-2-cyclopropyl-4-methyl-6-(2-morpholin-4-yl-ethoxy)-benzo[d]oxazole] | 50 to 200
32 | CC(=O)c1c(OCCN2CCOCC2)c(OCCCc2ccccc2)c2oc(C)nc2c1Cl [Example 37j] | 200 to 1000
33 | CC(=O)c1c(OCCN2CCOCC2)c(OCCC(C)c2ccc(F)cc2)c2oc(C)nc2c1Cl (stereo not drawn) [Example 38h, 5-Acetyl-4-chloro-7-(3-(4-fluorophenyl)butoxy)-6-(2-(morpholin-4-yl)ethoxy)-2-methyl-benzo[d]oxazole] | 50 to 200
